Publication PMC12837517, “Valorization of Onion-Processing Waste: Digestive Fate, Bioavailability, and Cellular Antioxidant Properties of Red and Yellow Peels Polyphenols” (Antioxidants, 2025)
Where two headings read alike, the source gives them in different places. Marks after values point to notes of the source that are not given here. One block for each compound: values may come before it.

Legend:
[1] = tested on: Caco-2 cell monolayer; experiment: Transport of polyphenols across differentiated Caco-2 monolayers (apical stability, basolateral bioavailability, Papp)
Description: (§1) To determine how effectively specific polyphenols might be absorbed through the human intestine, an in vitro assay was conducted utilizing the Caco-2 cell line, which, when fully differentiated, mimics the human intestinal barrier, as described by D’Antuono et al. [16]. […] The cells were maintained for 21 days in a standard culture condition to ensure complete differentiation into a tight monolayer. The medium in both the apical and basolateral compartments was refreshed twice weekly.
(§2) The development of a robust epithelial barrier was confirmed by measuring the Transepithelial Electrical Resistance (TEER) using a volt–ohm meter. […] Prior to the experiment, the monolayers were rinsed with a pH 5.5 PBS. The apical chamber then received 2 mL of phenol red-free DMEM containing hydroalcoholic extracts from red and yellow onion peels, adjusted to a final total polyphenol concentration of 60 μg/mL and 30 μg/mL, respectively. The system was incubated at 37 °C, and samples from both the apical and basolateral chambers were collected for 30, 60, 90, and 120 min to track the time-dependent flux of the compounds. These samples were flash-frozen at −80 °C pending High-Performance Liquid Chromatography (HPLC) analysis.
(§3) For the assessment of polyphenol accumulation within the Caco-2 cells, the monolayers were first subjected to a sequential wash with PBS pH 5.5, and then with a solution of 0.1% fatty acid-free bovine albumin in PBS pH 5.5. The cells were then mechanically harvested into 1 mL of cold PBS pH 5.5 and stored at −80 °C under a nitrogen atmosphere. […] Polyphenols were chemically isolated from the sonicated Caco-2 cells and the basolateral solutions via a liquid–liquid extraction technique, employing ethyl acetate EtOAc stabilized with 0.01% butylated hydroxytoluene (BHT). This extraction was repeated three times, and the pooled organic layers were dried under vacuum before being dissolved in 200 μL mobile phase for HPLC analysis.

[2] = tested on: Caco-2 cells; experiment: Polyphenol accumulation within Caco-2 cells (uptake); type: in vitro ADME, human
Description: as §1, §2, §3

[3] = Two-step in vitro gastrointestinal digestion, digestive stability of polyphenols; type: in vitro ADME; settings: for Digestive Stability (%) Gastric %: after gastric phase (pepsin, pH 2.5, 37 °C, 1 h); for Digestive Stability (%) Intestinal %: after small intestinal phase (pH 6.5, 37 °C, 2 h)
Description: The digestive stability of polyphenols was assessed using a two-step in vitro gastrointestinal digestion model, as described by Cardinali et al.. Aliquots (3 mL) of aqueous onion peel extracts (500 μg/mL total polyphenols, determined by HPLC-DAD) were diluted with 4.5 mL of 0.9% NaCl at pH 7. The gastric phase was initiated with addition of 0.9 mL of porcine pepsin solution (40 mg/mL) in 0.1 N HCl and adjustment of pH to 2.5 ± 0.1 with 1 N HCl. Samples were incubated at 37 °C for 1 h. Following gastric digestion, the small intestinal phase was initiated by adjusting the pH of gastric digesta to 5.3 with 100 mM NaHCO3 and 1 N NaOH, followed by the addition of 2.7 mL of small intestinal enzyme solution (lipase 2 mg/mL, pancreatin 4 mg/mL, and bile 24 mg/mL in 100 mM NaHCO3). The final sample pH was adjusted to 6.5 ± 0.1 with 1 N NaOH, the volume was standardized to 15 mL with saline solution (0.9% NaCl), and the sample was incubated at 37 °C for 2 h. After both digestion steps (gastric and small intestinal), the samples were collected and centrifuged (10,000× g, 1 h, 4 °C), filtered (0.45 μm), and then analyzed by HPLC-DAD. Digestive stability (%) was calculated by comparing pre- and post-digestion polyphenol content.

[4] = Transport of polyphenols across differentiated Caco-2 monolayers (apical stability, basolateral bioavailability, Papp); settings: human, Caco-2
Description: as §1, §2, §3

[5] = tested on: Caco-2 cell monolayer
Description: as §1, §2, §3

[6] = parameters: method as in PMID 34388527; settings: at room temperature; cited from earlier work
[7] = yellow onion peels extract, 30 min (maximum)
[8] = red onion peels “Rossa di Tropea” extract
[9] = yellow onion peels “Recas” extract
[10] = yellow onion peels extract, 30-120 min
[11] = yellow onion peels “Recas” extract, listed as quercetin aglycone

Compound: OC[C@H]1O[C@@H](Oc2cc3c(O)cc(O)cc3[o+]c2-c2ccc(O)c(O)c2)[C@H](O)[C@@H](O)[C@@H]1O [Cyanidin 3-glucoside]
Papp (apical-to-basolateral) ([1]; red onion peels extract): 5.1 ×10⁻⁶ cm/s
detection in basolateral compartment ([1]; red onion peels extract, 30-120 min): present in the basolateral side at 60 and 120 min

Compound: O=c1c(O[C@@H]2O[C@H](CO)[C@@H](O)[C@H](O)[C@H]2O)c(-c2ccc(O[C@@H]3O[C@H](CO)[C@@H](O)[C@H](O)[C@H]3O)c(O)c2)oc2cc(O)cc(O)c12 [Quercetin 3,4′-diglucoside]
Papp (apical-to-basolateral) [5]: 6.1 ×10⁻⁶ cm/s

Compound: O=c1c(O)c(-c2ccc(O[C@@H]3O[C@H](CO)[C@@H](O)[C@H](O)[C@H]3O)c(O)c2)oc2cc(O)cc(O)c12 [Spiraeoside, quercetin-4′-O-glucoside]
cellular accumulation ([2]; red onion peels extract, 90 min (maximum)): 0.142 ng/µg protein
cellular accumulation [2, 7]: 0.162 ng/µg protein
Digestive Stability (%) Gastric % [3, 8]: 99.51 ± 3.50 ^a %
Digestive Stability (%) Intestinal % [3, 8]: 39.97 ± 6.96 ^b %
Digestive Stability (%) Gastric % [3, 9]: 81.11 ± 6.54 ^a %
Digestive Stability (%) Intestinal % [3, 9]: 36.76 ± 3.49 ^b %
Papp A→B at 120 min, 30 µg/mL total polyphenols [4]: 5.5 ×10⁻⁶ cm/s
bioavailability at 90 min, 30 µg/mL total polyphenols [4]: ~8%
bioavailability at 120 min, 30 µg/mL total polyphenols [4]: ~8%
recovery at 30 min, 60 μg/mL total polyphenols [4]: 78%
recovery at 120 min, 60 μg/mL total polyphenols [4]: 62%

Compound: COc1cc(-c2oc3cc(O)cc(O)c3c(=O)c2O)ccc1O [isorhamnetin]
cellular accumulation ([2]; red onion peels extract, 120 min): 0.040 ng/µg protein

Compound: O=C1c2c(O)cc(O)cc2OC(c2ccc(O)c(O)c2)C1O (stereo not shown) [taxifolin]
solubility [6]: 0.1%

Second part, the compound after the results:

cellular accumulation ([2]; red onion peels extract, 30 min): 0.013 ng/µg protein
cellular accumulation [2, 7]: 0.050 ng/µg protein
recovery ([3]; in both onion varieties, phase not specified, read-out: recovery after digestion): > 100%
Digestive Stability (%) Gastric % [3, 8]: >100.00%
Digestive Stability (%) Intestinal % [3, 8]: >100.00%
Digestive Stability (%) Gastric % [3, 9]: 90.32 ± 4.41 ^b %
Digestive Stability (%) Intestinal % [3, 9]: >100.00 ^a %
Papp A→B at 120 min, 30 µg/mL total polyphenols [4]: 8.4 ×10⁻⁶ cm/s
bioavailability at 90 min, 30 µg/mL total polyphenols [4]: 6.8%
bioavailability at 120 min, 30 µg/mL total polyphenols [4]: 7.7%
stability in apical culture medium over time [1, 10]: consistent stability
Compound: O=C(O)c1ccc(O)c(O)c1 [Protocatechuic acid]

Papp (apical-to-basolateral) [5]: 5.9 ×10⁻⁶ cm/s
Compound: O=c1c(O)c(-c2ccc(O[C@@H]3O[C@H](CO)[C@@H](O)[C@H](O)[C@H]3O)c(O)c2)oc2cc(O[C@@H]3O[C@H](CO)[C@@H](O)[C@H](O)[C@H]3O)cc(O)c12 [Quercetin 7,4′-diglucoside]

maximum cellular accumulation ([2]; red onion peels extract, time not stated): 1.468 ng/µg protein
Digestive Stability (%) Gastric % [3, 8]: 32.34 ± 3.97 ^a %
Digestive Stability (%) Intestinal % [3, 8]: 15.37 ± 2.55 ^b %
Digestive Stability (%) Gastric % [3, 9]: 3.44 ± 0.56 ^b %
Digestive Stability (%) Gastric % [3, 11]: 3.44%
Digestive Stability (%) Intestinal % [3, 9]: 15.64 ± 0.96 ^a %
Digestive Stability (%) Intestinal % [3, 11]: 15.64%
Papp A→B at 120 min, 60 µg/mL total polyphenols [4]: 1.1 ×10⁻⁶ cm/s
bioavailability at 60 min, 60 µg/mL total polyphenols [4]: 0.6%
recovery at 30 min, 60 μg/mL total polyphenols [4]: 38%
recovery at 120 min, 60 μg/mL total polyphenols [4]: 7%
detection in basolateral compartment [1, 10]: not detected
Compound: O=c1c(O)c(-c2ccc(O)c(O)c2)oc2cc(O)cc(O)c12 [Quercetin]
